Experimental data reported in US20210204568A1, “CBD-[…]” (THC PHARM GMBH THE HEALTH CONCEPT, priority 2014, published 2021).

Test system: freely moving rats
Experiment: Electropharmacogram (EEG spectral power and physical activity) of freely moving rats after a CBD liquid formulation
Format: in vivo, rat
Procedure: FIGS. 1 to 3 show electropharmacograms from electroencephalography (EEG) of adult rats (>3 months old), wherein a dosage of 1 mg/kg (body weight) (FIG. 1), 5 mg/kg (body weight (FIGS. 2), and 15 mg/kg (body weight) (FIG. 3) cannabidiol was administered in the form of a liquid formulation.
Under general anesthesia, four depth electrodes were implanted into the prefrontal cortex, the hippocampus, the striatum, and the reticular formation of the rats. From the head of the rats, signals are wirelessly transmitted by radio to a computer. At the same time, the physical activity is measured.
The signals are subjected to a frequency analysis, for example using the fast Fourier transform (FFT), and the frequency content of a signal is determined. In the case of EEG data, the spectrum is divided into multiple regions, which historically are denoted by delta, theta, alpha and beta.
After the division into seven frequency ranges ((1) to (7), see FIGS. 1-3), the changes in the electric output after administration of a liquid formulation according to the invention comprising cannabidiol can be quantified and, taking the signals of the four brain regions into consideration, a specific change pattern, referred to as the “electropharmacogram (supra)”, is obtained (Dimpfel W., Pharmacological classification of herbal extracts by means of comparison to spectral EEG signatures induced by synthetic drugs in the freely moving rat. Journal of Ethnopharmacology 2013, 149, 583-589).
Time-dependent progression of the electric output (“spectral power”) (ordinate) in percent from the 45-minute long pre-drug base line (values) in four brain regions of freely moving rats in the presence of a vehicle (4 ml/kg). The frequency ranges are depicted as bars on the abscissa, specifically delta (1), theta (2), alpha1 (3), alpha2 (4), beta1a (5), beta1b (6) and gamma spectral power (7) from left to right, depending on the named brain region, The statistical significance is represented in stars compared to the control group (vehicle): *=p<0.05; **=p<0.01.

[1] = dosage of 1 mg/kg to 5 mg/kg, adult rats
[2] = high dosages, 5 or 15 mg/kg (body weight)

## C=C(C)[C@@H]1CCC(C)=C[C@H]1c1c(O)cc(CCCCC)cc1O [CBD, 2-[1R-3-methyl-6-(1-methylethenyl]--cyclohexen-1-yl]-5-pentyl-1,3-benzenediol]
[1]
  duration for which the specific increase in gamma spectral power can be observed: at least 4 hours
  gamma spectral power in the hippocampus: not at all
Dosage of 1 mg/kg to 5 mg/kg, adult rats, FIG. 1
  gamma spectral power within the striatum: increase
Dosage of 15 mg/kg, adult rats, FIG. 3
  gamma spectral power: no specific increase
[2]
  EEG pattern or electropharmacogram compared with drug classes: corresponds to that of certain antidepressants and analgesic drugs
  activity index: significant decrease
High dosages, 5 or 15 mg/kg (body weight), FIGS. 2 and 3
  effect according to the electropharmacogram: sedating effect
Lowest dosage, less than 5 mg/kg, preferably 1 mg/kg (body weight)
  effect according to the electropharmacogram: activating and invigorating effect
